Assay results: PubChem BioAssay (NCI)
“And” between values parts separate entries of the source, which are not always exact repeats. Equal values may be shown once.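 All cell lines were grown in 96-well plates and treated with compound for 48 hours. GI50: concentration for 50% inhibition of growth. TGI: total growth inhibition.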

Columns and labels:
Experiment in all cases: inhibition of tumour cell growth, NCI panel, 48 h
[1] = system: EKVX NSCLC
[2] = system: HCT-116 colon
[3] = system: HOP-62 NSCLC
[4] = system: M14 melanoma
[5] = system: NCI-H226 lung
[6] = system: OVCAR-4 ovarian
[7] = system: SF-539 CNS
[8] = system: SK-MEL-28 melanoma
[9] = system: SNB-19 CNS
[10] = system: UACC-62 melanoma

| Structure (SMILES) | TGI [1] [µM] | TGI [2] | TGI [3] | TGI [4] [µM] | TGI [5] [µM] | TGI [6] [µM] | TGI [7] | TGI [8] [µM] | TGI [9] | TGI [10] | GI50 [1] [µM] | GI50 [2] | GI50 [3] [µM] | GI50 [4] [µM] | GI50 [5] | GI50 [6] [µM] | GI50 [7] | GI50 [8] | GI50 [9] [µM] | GI50 [10] [µM] |
| --- | --- | --- | --- | --- | --- | --- | --- | --- | --- | --- | --- | --- | --- | --- | --- | --- | --- | --- | --- | --- |
| O=C(CC(=O)Nc1ccccc1O)Nc1ccccc1O | > 100 | 27.5 µM | > 100 µM | 29.7 | > 100 | > 100 | 35.1 µM | 27.4 | > 100 µM | 10.9 µM | – | – | – | – | – | – | – | – | – | – |
| ICCC(c1ccccc1)(c1ccccc1)c1ccccc1 | 23.2 | 13.5 µM | 24 µM | 3.72 | 27.3 | 30.8 | 16.1 µM | 12.5 | 31.1 µM | 5.74 µM | 6.96 | 2.55 µM | 11.6 | 1.92 | 13.7 µM | 11.6 | 3.61 µM | 3.4 µM | 14.4 | 2.46 |
| O=C(O)c1ccc(NCc2nc3cc4ccccc4cc3[nH]2)cc1 | > 100 | > 100 µM | > 100 µM | > 100 | > 100 | > 100 | > 100 µM | > 85.2 | > 100 µM | > 100 µM | – | – | – | – | – | – | – | – | – | – |
| N#CSCc1c(Cl)cccc1Cl | > 27.4 | > 39.3 µM | > 100 µM | > 100 | > 100 | > 100 | > 35.5 µM | > 100 | > 100 µM | > 67.4 µM | 3.94 | 2.92 µM | 36.6 | 3.05 | 12.6 µM | 5.82 | 3.45 µM | 9.16 µM | 32.3 | 5.18 |
| Cc1ccccc1NC(=O)C1C(=O)N(c2ccccc2C)C(=O)/C1=N\N (stereo not drawn) | > 100 | > 100 µM | > 100 µM | > 100 | > 100 | > 100 | > 100 µM | > 100 | > 100 µM | > 100 µM | – | – | – | – | – | – | – | – | – | – |
| CN1CCN(Cc2ccc(NC(=O)c3nc4ccc5[nH]ncc5c4c4c3CCC4)cc2C(F)(F)F)CC1 | 4.84 | 1.61 µM | 1.71 µM | 1.76 | 11.3 | 1.98 | 1.58 µM | 1.62 | 2.11 µM | 6.94 µM | 1.26 | 0.856 µM | 0.867 | 0.934 | 2.23 µM | 0.911 | 0.879 µM | 0.899 µM | 0.976 | 1.88 |
| O=C(OCC1OC(OC(=O)c2cc(O)c(O)c(OC(=O)c3cc(O)c(O)c(O)c3)c2)C(OC(=O)c2cc(O)c(O)c(OC(=O)c3cc(O)c(O)c(O)c3)c2)C(OC(=O)c2cc(O)c(O)c(OC(=O)c3cc(O)c(O)c(O)c3)c2)C1OC(=O)c1cc(O)c(O)c(OC(=O)c2cc(O)c(O)c(O)c2)c1)c1cc(O)c(O)c(OC(=O)c2cc(O)c(O)c(O)c2)c1 (stereo not drawn) | > 50 | > 50 µM | > 50 µM | > 50 | > 50 | > 50 | 35.1 µM | > 50 | > 50 µM | > 50 µM | 13.5 | 21.9 µM | > 50 | 25.3 | 16.6 µM | 35.2 | 11.7 µM | > 50 µM | 24.7 | 14.3 |
| COc1cc(C(=O)C/C(CCC(=O)Nc2ccc(Cl)cc2Cl)=N/NC(=O)C(N)=O)ccc1O | > 100 | > 100 µM | > 100 µM | > 100 | > 100 | > 100 | > 100 µM | > 100 | > 100 µM | > 100 µM | – | – | – | – | – | – | – | – | – | – |
| c1ccc(-c2nnc(Nc3ccc4c(c3)OCCO4)o2)c(NCc2ccncc2)c1 | > 100 | 11.8 µM | 19.9 µM | 0.273 | 0.106 | 21.9 | 6.01 µM | 39 | > 100 µM | > 100 µM | 0.105 | 0.0282 µM | 0.0297 | 0.0223 | 0.0264 µM | 0.0818 | 0.0283 µM | 0.0411 µM | 0.0536 | 0.0312 |
| C/C(=N\NC(=O)c1ccccc1O)c1cccc(/C(C)=N/NC(=O)c2ccccc2O)n1 | > 100 | 66.9 µM and 28.4 µM | 31.7 µM and 6.42 µM | > 100 | > 100 | > 100 | 23.3 µM and > 100 µM | > 100 | 74.2 µM and > 100 µM | 20.6 µM and > 100 µM | 0.317 | 5.85 µM and 0.619 µM | 0.467 | – | 5.8 µM and 3.79 µM | 15.9 | 5.96 µM and 0.918 µM | 24.4 µM and > 100 µM | – | 0.614 |
| CO[C@H]1C[C@@H]2CC[C@@H](C)[C@@](O)(O2)C(=O)C(=O)N2CCCC[C@H]2C(=O)O[C@H]([C@H](C)C[C@@H]2CC[C@@H](OP(C)(C)=O)[C@H](OC)C2)CC(=O)[C@H](C)/C=C(\C)[C@@H](O)[C@@H](OC)C(=O)[C@H](C)C[C@H](C)/C=C/C=C/C=C/1C | 18.5 | 24.8 µM | 21.5 µM | 26 | 24.2 | 21.3 | 21.7 µM | 23.8 | 23.5 µM | 20.7 µM | < 0.01 | 11.8 µM | < 0.01 | 11.8 | 1.71 µM | 0.698 | < 0.0234 µM | 11 µM | 7.03 | 0.386 |
| O=C(O)CCCSc1nc2ccccc2s1 | > 100 | > 100 µM | > 100 µM | > 100 | > 100 | > 100 | > 100 µM | > 100 | > 100 µM | > 100 µM | – | – | – | – | – | – | – | – | – | – |
| CC(=O)Nc1ccccc1-c1cnc2ccccc2n1 | > 100 | > 100 µM | > 100 µM | > 100 | > 100 | > 100 | > 100 µM | > 100 | > 100 µM | > 100 µM | – | – | – | – | – | – | – | – | – | – |
| Cc1ccc(NC(=O)CC/C(CC(=O)c2ccc(F)cc2)=N\NC(=O)C(=O)NN)cc1C | > 100 | > 100 µM | > 100 µM | > 100 | > 100 | > 100 | > 100 µM | > 100 | > 100 µM | > 100 µM | – | – | – | – | – | – | – | – | – | – |
| O=C(/C=C/c1ccccc1O)c1cccnc1 | > 100 | > 100 µM | > 100 µM | > 100 | > 100 | > 100 | > 100 µM | > 100 | > 100 µM | > 100 µM | – | – | – | – | – | – | – | – | – | – |
